Test results as given in patent US7030265B2, “Retinol derivatives, the method of preparations and the uses thereof” (Chebigen, Inc., priority 2001, dated 2006).
Several values for one entry are separate records, joined by “and”; a condition that tells them apart may be missing. Equal entries are not always repeated.

Experiments:
Assay type in all cases: cell-based
[1] = test system: activation protein-1 (AP-1); assay: Activity inhibition test of AP-1, Coll-CAT reporter in Cos-1 cells; conditions: for lowered the expression of collagenase (Coll-CAT): expression level in the presence of c-Jun expression set as 100%; for effect on AP-1 activity inhibition, compared in words: Coll-CAT
Excerpt: CAT reporter (Coll-CAT) containing collagen promoter including AP-1 transcription factor binding site (TRE) was utilized to transfect Cos-1 cell line. Activity inhibition tests of activation protein-1 (AP-1) similar to the experimental example 6 were proceeded.

[2] = test system: activation protein-1 (AP-1); assay: Activity inhibition test of AP-1, Coll-CAT reporter in HaCAT cells; conditions: c-Jun expression, in the presence of retinoic acid receptor α, CAT ELISA, FIG. 6
Protocol: Since the activation protein-1 (c-Jun is the constituent of AP-1) is transcription factor inducing expression of collagenase enzyme, which is a major cause of skin wrinkle, the effect of wrinkle prevention was determined by the activity inhibition test of AP-1.
CAT reporter (Coll-CAT) containing collagen promoter including AP-1 transcription factor binding site (TRE) were utilized to cotransfect skin cancer (HaCAT) cell line. The effect of retinol derivatives on the activity of AP-1 was measured by CAT ELISA. In some cases, the vector expressing c-Jun or retinoic acid receptors were utilized to cotransfect, and the effect of retinol derivatives on the transcription activity of c-Jun was analyzed.
With the assumption of the prepared retinol-(N-formyl-aspartam) derivatives which inhibit the activity of AP-1 causing skin wrinkle, would have the utility for cosmetics, the related investigations were proceeded. Similar to the experiment of retinoic acid receptor, AP-1 (c-jun) expression vector and Coll-CAT plasmid for the activity measurement were introduced into the skin cancer (HaCAT) cell line with liposome. After treating the cells with retinol-(N-formyl-aspartam) derivatives, the cell extracts were isolated. The expression level of CAT were measured with CAT ELISA to determine the effect of retinol-(N-formyl-aspartam) on the activity of the AP-1.

[3] = target: T1, retinoic acid receptor α (Homo sapiens, UniProt P10276); assay: RAR activity test, DR5-tk-CAT reporter in Cos-1 cells; conditions: 1 μM, CAT ELISA, FIG. 3-5
T1 construct: expressed in transfected cells; b135 says HaCAT
T1 sequence (P10276 1-462): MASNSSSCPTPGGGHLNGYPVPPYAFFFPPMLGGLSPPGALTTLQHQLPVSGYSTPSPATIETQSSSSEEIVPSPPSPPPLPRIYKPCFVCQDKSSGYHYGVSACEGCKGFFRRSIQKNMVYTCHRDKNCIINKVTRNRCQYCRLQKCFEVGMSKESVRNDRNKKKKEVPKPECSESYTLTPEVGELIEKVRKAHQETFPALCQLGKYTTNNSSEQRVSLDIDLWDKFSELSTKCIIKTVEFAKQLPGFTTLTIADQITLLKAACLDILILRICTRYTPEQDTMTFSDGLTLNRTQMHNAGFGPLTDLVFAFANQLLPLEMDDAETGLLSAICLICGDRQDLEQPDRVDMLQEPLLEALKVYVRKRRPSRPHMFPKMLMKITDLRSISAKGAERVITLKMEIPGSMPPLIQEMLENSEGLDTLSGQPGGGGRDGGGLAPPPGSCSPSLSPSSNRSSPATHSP
Excerpt: Recombinant DNA, DR5-tk-CAT consisting of DR5, effectors of retinoic acid receptor/retinoid X receptor, thymine kinase promoter, and CAT (chloramphenicol acetyl transferase) were mixed with the plasmid DNA expressing retinoic acid receptor α, β, ? and utilized to cotransfect skin cancer (HaCAT) cell line with lipofectamine (GibcoBRL). […] The cells were washed with phosphate-buffered saline (PBS), and the proteins were isolated from each cells, and the activity of β-galactosidase and protein contents were measured to determine transfection efficacy, the transcription level of RAR receptor were measured with CAT ELISA.
(§1) All procedures were done as Experimental Example 3.
as §1

[4] = target: T2, retinoic acid receptor β (Homo sapiens, UniProt P10826); assay: as above; conditions: 1 μM, CAT ELISA, FIG. 3-5
T2 construct: expressed in transfected cells; b135 says HaCAT
T2 sequence (P10826 1-455): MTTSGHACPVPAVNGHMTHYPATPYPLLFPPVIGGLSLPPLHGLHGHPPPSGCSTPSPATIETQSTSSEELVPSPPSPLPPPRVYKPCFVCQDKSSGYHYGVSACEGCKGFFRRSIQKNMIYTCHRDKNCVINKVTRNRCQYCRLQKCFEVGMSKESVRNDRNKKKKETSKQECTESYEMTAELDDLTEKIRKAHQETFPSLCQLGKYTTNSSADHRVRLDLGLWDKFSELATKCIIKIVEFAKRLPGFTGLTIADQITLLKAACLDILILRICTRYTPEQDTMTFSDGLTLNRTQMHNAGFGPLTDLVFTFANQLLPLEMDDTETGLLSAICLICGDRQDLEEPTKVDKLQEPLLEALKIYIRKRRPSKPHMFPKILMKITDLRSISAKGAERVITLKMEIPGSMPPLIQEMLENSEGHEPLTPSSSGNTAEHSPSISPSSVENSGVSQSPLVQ

[5] = target: T3, retinoic acid receptor γ (Homo sapiens, UniProt P13631); assay: as above; conditions: 1 μM, CAT ELISA, FIG. 3-5
T3 construct: expressed in transfected cells; b135 says HaCAT
T3 sequence (P13631 1-454): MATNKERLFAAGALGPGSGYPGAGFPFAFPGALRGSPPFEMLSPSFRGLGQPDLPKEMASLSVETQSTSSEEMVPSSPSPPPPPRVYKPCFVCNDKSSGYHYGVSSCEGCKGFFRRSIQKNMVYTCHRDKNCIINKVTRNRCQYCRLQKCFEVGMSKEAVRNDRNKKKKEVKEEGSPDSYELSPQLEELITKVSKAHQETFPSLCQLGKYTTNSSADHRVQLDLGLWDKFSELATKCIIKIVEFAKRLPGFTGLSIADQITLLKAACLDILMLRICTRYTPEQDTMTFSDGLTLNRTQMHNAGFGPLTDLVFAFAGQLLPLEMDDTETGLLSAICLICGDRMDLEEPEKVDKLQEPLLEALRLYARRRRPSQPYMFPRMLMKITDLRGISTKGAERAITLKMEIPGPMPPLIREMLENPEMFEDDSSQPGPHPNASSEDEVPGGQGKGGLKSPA

[6] = target: T1, retinoic acid receptor α; assay: RAR activity test, DR5-tk-CAT reporter in HaCAT cells; conditions: 1 μM, CAT ELISA, FIG. 2 (A)
Excerpt: (§2) To analyze the effects of retinol-(N-formyl-aspartam) on the activity of retinoic acid receptor, skin cancer (HaCAT) cell lines were utilized to measure the activity of retinoic acid receptor/retinoid X receptor.
(§3) Recombinant DNA, DR5-tk-CAT or DR1-tk-CAT consisting of DR1 or DR5, effectors of retinoic acid receptor/retinoid X receptor, thymine kinase promoter, and CAT(chloramphenicol acetyl transferase) were mixed with the plasmid DNA expressing retinoic acid receptor α, β, ? or retinoid X receptor α, β, ? to cotransfect skin cancer (HaCAT) cell line with lipofectamine (GibcoBRL). The cotransfected cell lines were cultured for 1 day on DMEM/10% FBS media, each retinol derivatives (1 μM) were added and cultured for one more day, 5% CO2, 37° C. The cells were washed with phosphate-buffered saline (PBS), and the proteins were isolated from each cells, and the activity of β-galactosidase and protein contents were measured to determine transfection efficacy, the transcription level of RAR or RXR receptor were measured with CAT ELISA (Roche Molecular Biochemical, Mannheim, Germany).
To determine the effect of retinol-(N-formyl-aspartam) on retinoic acid receptors, each retinoic acid receptor (α, β, or ? ) expression vector and activity measuring DR5-tk-CAT plasmid were introduced with liposome. After treating cells with retinol-(N-formyl-aspartam), the cell extracts were isolated. The expression level of CAT were measured with CAT ELISA to determine the effect of retinol-(N-formyl-aspartam) on the activity of retinoic acid receptors.

[7] = target: T4, retinoid X receptor γ (Homo sapiens, UniProt P48443); assay: RXR activity test, DR1-tk-CAT reporter in HaCAT cells; conditions: 1 μM, CAT ELISA, FIG. 2 (B)
T4 construct: expressed in transfected cells; host or cells: HaCAT
T4 sequence (P48443 1-463): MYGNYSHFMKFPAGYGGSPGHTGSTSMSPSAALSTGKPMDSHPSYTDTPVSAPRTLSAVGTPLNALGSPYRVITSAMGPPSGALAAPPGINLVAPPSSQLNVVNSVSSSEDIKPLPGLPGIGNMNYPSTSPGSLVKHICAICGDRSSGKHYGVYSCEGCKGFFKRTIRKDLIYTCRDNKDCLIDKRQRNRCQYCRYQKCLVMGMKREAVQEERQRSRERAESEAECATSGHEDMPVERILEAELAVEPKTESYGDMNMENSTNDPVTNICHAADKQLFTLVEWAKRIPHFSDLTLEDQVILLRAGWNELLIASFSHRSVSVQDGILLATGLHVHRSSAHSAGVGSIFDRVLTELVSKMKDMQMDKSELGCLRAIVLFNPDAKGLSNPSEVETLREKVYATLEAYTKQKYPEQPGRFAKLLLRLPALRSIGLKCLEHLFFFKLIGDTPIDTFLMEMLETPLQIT
Excerpt: as §2, §3

[8] = target: T5, retinoid X receptor β (Homo sapiens, UniProt P28702); assay: as above; conditions: 1 μM, CAT ELISA, FIG. 2 (B)
T5 construct: expressed in transfected cells; host or cells: HaCAT
T5 sequence (P28702 1-533): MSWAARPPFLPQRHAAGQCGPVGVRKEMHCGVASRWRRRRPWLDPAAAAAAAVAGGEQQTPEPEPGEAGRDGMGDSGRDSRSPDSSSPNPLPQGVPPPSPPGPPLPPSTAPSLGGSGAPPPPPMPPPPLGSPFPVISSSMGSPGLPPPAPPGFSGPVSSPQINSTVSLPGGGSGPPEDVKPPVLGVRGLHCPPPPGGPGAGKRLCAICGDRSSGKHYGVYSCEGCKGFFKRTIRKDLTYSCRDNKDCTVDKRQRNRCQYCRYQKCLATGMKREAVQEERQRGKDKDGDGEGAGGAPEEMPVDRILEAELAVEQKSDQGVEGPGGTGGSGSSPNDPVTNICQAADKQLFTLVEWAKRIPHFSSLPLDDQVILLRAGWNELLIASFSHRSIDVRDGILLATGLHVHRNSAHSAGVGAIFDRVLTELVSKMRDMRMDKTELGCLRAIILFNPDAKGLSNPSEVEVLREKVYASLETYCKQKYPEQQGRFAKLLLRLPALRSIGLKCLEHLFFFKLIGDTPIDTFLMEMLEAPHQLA
Excerpt: as §2, §3

[9] = target: T6, retinoid X receptor α (Homo sapiens, UniProt P19793); assay: as above; conditions: 1 μM, CAT ELISA, FIG. 2 (B)
T6 construct: expressed in transfected cells; host or cells: HaCAT
T6 sequence (P19793 1-462): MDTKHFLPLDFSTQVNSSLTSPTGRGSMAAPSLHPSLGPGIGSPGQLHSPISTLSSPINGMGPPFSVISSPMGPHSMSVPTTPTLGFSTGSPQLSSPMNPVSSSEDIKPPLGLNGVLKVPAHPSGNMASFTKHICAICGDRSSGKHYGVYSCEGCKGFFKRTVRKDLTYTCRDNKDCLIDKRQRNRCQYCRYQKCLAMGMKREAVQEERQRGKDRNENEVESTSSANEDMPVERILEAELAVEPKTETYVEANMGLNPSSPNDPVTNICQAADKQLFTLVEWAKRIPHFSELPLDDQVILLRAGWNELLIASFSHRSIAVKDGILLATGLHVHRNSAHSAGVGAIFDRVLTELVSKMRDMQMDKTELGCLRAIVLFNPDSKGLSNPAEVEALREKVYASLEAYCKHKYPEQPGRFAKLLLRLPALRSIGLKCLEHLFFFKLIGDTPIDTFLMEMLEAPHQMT
Excerpt: as §2, §3

| Structure (SMILES) | activation of retinoic acid receptor α [3] | activation of retinoic acid receptor β [4] | activation of retinoic acid receptor γ [5] | activation of retinoic acid receptor α [6] | activation of retinoid X receptor γ [7] | activation of retinoid X receptor β [8] | activation of retinoid X receptor α [9] | lowered the expression of collagenase (Coll-CAT) [1] | lowered the expression of collagenase (Coll-CAT) [2] | effect on AP-1 activity inhibition, compared in words [1] |
| --- | --- | --- | --- | --- | --- | --- | --- | --- | --- | --- |
| CC1=C(/C=C/C(C)=C/C=C/C(C)=C/C(=O)O)C(C)(C)CCC1 [retinoic acid, reference compound] | – | – | – | – | – | – | – | ~50% and ~47.5% | approximately 60% | – |
| CC1=C(/C=C/C(C)=C/C=C/C(C)=C/COC(=O)/C=C/C(=O)OC/C=C(C)/C=C/C=C(C)/C=C/C2=C(C)CCCC2(C)C)C(C)(C)CCC1 [retinol-(fumalic acid), Di[(2E,4E,6E,8E)-3,7-dimethyl-9-(2,6,6-trimethyl-1-cyclohexenyl)-2,4,6,8-nonatetraenyl] (E)-2-butenedioate] | high activation | weak activation | weak activation | – | – | – | – | approximately 42% | – | no significant effect on AP-1 activity inhibition than retinoic acid or retinol |
| CC1=C(/C=C/C(C)=C/C=C/C(C)=C/COC(=O)/C=C(\C)C(=O)OC/C=C(C)/C=C/C=C(C)/C=C/C2=C(C)CCCC2(C)C)C(C)(C)CCC1 [retinol-(mesaconic acid), Di[(2E,4E,6E,8E)-3,7-dimethyl-9-(2,6,6-trimethyl-1-cyclohexenyl)-2.4,6,8-nonatetraenyl] (E)-2-methyl-2-butenedioate] | – | – | – | – | – | – | – | ~30% | – | less effect on AP-1 activity inhibition than retinoic acid or retinol |

More lines, main results first:

| activation of retinoic acid receptor α [3] | activation of retinoic acid receptor β [4] | activation of retinoic acid receptor γ [5] | activation of retinoic acid receptor α [6] | activation of retinoid X receptor γ [7] | activation of retinoid X receptor β [8] | activation of retinoid X receptor α [9] | Structure (SMILES) | lowered the expression of collagenase (Coll-CAT) [1] | lowered the expression of collagenase (Coll-CAT) [2] | effect on AP-1 activity inhibition, compared in words [1] |
| --- | --- | --- | --- | --- | --- | --- | --- | --- | --- | --- |
| high activation | weak activation | weak activation | – | – | – | – | CC1=C(/C=C/C(C)=C/C=C/C(C)=C/COC/C=C(C)/C=C/C=C(C)/C=C/C2=C(C)CCCC2(C)C)C(C)(C)CCC1 [retinol-(retinol), (1E,3E,5E,7E)-9[(2E,4E,6E,8E)-3,7-dimethyl-9-(2,6,6-trimethyl-1-cyclohexenyl)-2,4,6,8-nonatetraenyl]oxy-3,7-dimethyl-1-(2,6,6-trimethyl-1-cyclohexenyl)-1,3,5,7-nonateraene] | ~41.5% | – | – |
| high activation | – | – | high activation | no activation | no activation | no activation | CC1=C(/C=C/C(C)=C/C=C/C(C)=C/CO)C(C)(C)CCC1 [retinol] | approximately 43% | approximately 47% | – |
